Patent EP4755888A1 (ILAb Co., Ltd., priority 2023, dated 2025)

Target: PD-1/PD-L1 (Homo sapiens, UniProt Q9NZQ7)
Experiment: TR-FRET PD-1/PD-L1 binding inhibition at the molecular level (free proteins)
Conditions: Tag1-PD-L1 and Tag2-PD-1 proteins, twelve concentrations from 200 nM, 2 hours at room temperature, read-out: FRET assay (IC50)
Method: In order to evaluate the inhibitory activity of the compounds synthesized according to the above Preparation Examples against PD-1/PD-L1 molecules in a free protein state,a TR-FRET (Time-Resolved Fluorescence Energy Transfer) experimetn was performed as described below.
Specifically, the compounds were prepared in a 96-well plate by serial dilution starting from 200 nM with 1/2 dilutions to obtain a total of twelve concentrations, and 2 µL of each compound solution was added to a 384-well plate. Thereafter, Tag1-PD-L1 protein and Tag2-PD-1 protein were each prepared at a 1x concentration, mixed at a ratio of 1:1, and 8 µL of the mixed solution was added to each well of the 384-well plate containing the compounds. Anti-Tag1 Eu Cryptate reagent and Anti-Tag2 XL665 antibody were each prepared at a 1* concentration, mixed at a ratio of 1:1, and 10 µL of the mixed solution was added to each well of the 384-well plate containing the compounds and proteins, followed by incubation at room temperature for 2 hours. Upon completion of the reaction, fluorescence signals at wavelengths of 620 nm and 665 nm were measured using a microplate reader.

PD-1/PD-L1, sequence (Q9NZQ7 19-238 limits assumed): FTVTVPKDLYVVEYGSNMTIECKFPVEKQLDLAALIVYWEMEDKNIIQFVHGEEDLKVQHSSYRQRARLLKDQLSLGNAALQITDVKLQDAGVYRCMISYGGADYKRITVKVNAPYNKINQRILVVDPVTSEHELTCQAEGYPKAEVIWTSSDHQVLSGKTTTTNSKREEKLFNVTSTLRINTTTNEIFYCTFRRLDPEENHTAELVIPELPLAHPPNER

SMILES | IC50 [nM]
O=C(Nc1cccc(-c2cccc(Nc3nccc4cc(CN5CC[C@@H](O)C5)cnc34)c2Cl)c1Cl)c1cc2n(n1)CCCC2O (stereo partly drawn) [Compound 18, N-(2,2'-dichloro-3'-((3-(((R)-3-hydroxypyrrolidin-1-yl)methyl)-1,7-naphthyridin-8-yl)amino)-[1,1'-biphenyl]-3-yl)-4-hydroxy-4,5,6,7-tetrahydropyrazolo[1,5-a]pyridine-2-carboxamide] | 10 to 100
CC(=O)NCCNC1CCCn2nc(C(=O)Nc3cccc(-c4cccc(Nc5nccc6cc(CN7CC[C@@H](O)C7)cnc56)c4Cl)c3Cl)cc21 (stereo partly drawn) [Compound 19, 4-((2-acetamidoethyl)amino)-N-(2,2'-dichloro-3'-((3-(((R)-3-hydroxypyrrolidin-1-yl)methyl)-1,7-naphthyridin-8-yl)amino)-[1,1'-biphenyl]-3-yl)-4,5,6,7-tetrahydropyrazolo[1,5-a]pyridine-2-carboxamide] | 10 to 100
O=C(Nc1cccc(-c2cccc(Nc3nccc4cc(CN5CC[C@@H](O)C5)cnc34)c2Cl)c1Cl)c1cc2n(n1)CCCC2NCCO (stereo partly drawn) [Compound 20, N-(2,2'-dichloro-3'-((3-(((R)-3-hydroxypyrrolidin-1-yl)methyl)-1,7-naphthyridin-8-yl)amino)-[1,1'-biphenyl]-3-yl)-4-((2-hydroxyethyl)amino)-4,5,6,7-tetrahydropyrazolo[1,5-a]pyridine-2-carboxamide] | 10 to 100
O=C1CC[C@@H](CNC2CCCn3nc(C(=O)Nc4cccc(-c5cccc(Nc6nccc7cc(CN8CC[C@@H](O)C8)cnc67)c5Cl)c4Cl)cc32)N1 (stereo partly drawn) [Compound 21, N-(2,2'-dichloro-3'-((3-(((R)-3-hydroxypyrrolidin-1-yl)methyl)-1,7-naphthyridin-8-yl)amino)-[1,1'-biphenyl]-3-yl)-4-((((S)-5-oxopyrrolidin-2-yl)methyl)amino)-4,5,6,7-tetrahydropyrazolo[1,5-a]pyridine-2-carboxamide] | 10 to 100
O=C(Nc1cccc(-c2cccc(Nc3nccc4cc(CN5CC[C@@H](O)C5)cnc34)c2Cl)c1Cl)c1cc2n(n1)CCCC2N1CCC(O)CC1 (stereo partly drawn) [Compound 23, N-(2,2'-dichloro-3'-((3-(((R)-3-hydroxypyrrolidin-1-yl)methyl)-1,7-naphthyridin-8-yl)amino)-[1,1'-biphenyl]-3-yl)-4-(4-hydroxypiperidin-1-yl)-4,5,6,7-tetrahydropyrazolo[1,5-a]pyridine-2-carboxamide] | 10 to 100
O=C(Nc1cccc(-c2cccc(Nc3nccc4cc(CN5CC[C@@H](O)C5)cnc34)c2Cl)c1Cl)c1cc2n(n1)CCCC2N1CCC(C(=O)O)CC1 (stereo partly drawn) [Compound 24, 1-(2-((2,2'-dichloro-3'-((3-(((R)-3-hydroxypyrrolidin-1-yl)methyl)-1,7-naphthyridin-8-yl)amino)-[1,1'-biphenyl]-3-yl)carbamoyl)-4,5,6,7-tetrahydropyrazolo[1,5-a]pyridin-4-yl)piperidine-4-carboxylic acid] | 10 to 100
O=C(Nc1cccc(-c2cccc(Nc3nccc4cc(CN5CC[C@@H](O)C5)cnc34)c2Cl)c1Cl)c1cc2n(n1)CCCC2N1CC[C@@H](O)C1 (stereo partly drawn) [Compound 25, N-(2,2'-dichloro-3'-((3-(((R)-3-hydroxypyrrolidin-1-yl)methyl)-1,7-naphthyridin-8-yl)amino)-[1,1'-biphenyl]-3-yl)-4-((R)-3-hydroxypyrrolidin-1-yl)-4,5,6,7-tetrahydropyrazolo[1,5-a]pyridine-2-carboxamide] | 10 to 100
CC(C)(NC1CCCn2nc(C(=O)Nc3cccc(-c4cccc(Nc5nccc6cc(CN7CC[C@@H](O)C7)cnc56)c4Cl)c3Cl)cc21)C(=O)O (stereo partly drawn) [Compound 27, 2-((2-((2,2'-dichloro-3'-((3-(((R)-3-hydroxypyrrolidin-1-yl)methyl)-1,7-naphthyridin-8-yl)amino)-[1,1'-biphenyl]-3-yl)carbamoyl)-4,5,6,7-tetrahydropyrazolo[1,5-a]pyridin-4-yl)amino)-2-methylpropanoic acid] | 10 to 100
Cc1c(Nc2nccc3cc(CN4CC[C@@H](O)C4)cnc23)cccc1-c1cccc(NC(=O)c2cc3n(n2)CCCC3N2CC[C@@H](O)C2)c1Cl (stereo partly drawn) [Compound 29, N-(2-chloro-3'-((3-(((R)-3-hydroxypyrrolidin-1-yl)methyl)-1,7-naphthyridin-8-yl)amino)-2'-methyl-[1,1'-biphenyl]-3-yl)-4-((R)-3-hydroxypyrrolidin-1-yl)-4,5,6,7-tetrahydropyrazolo[1,5-a]pyridine-2-carboxamide] | < 10
CC(=O)NCCNC1CCCn2nc(C(=O)Nc3cccc(-c4cccc(Nc5nccc6cc(CN7CC[C@@H](O)C7)cnc56)c4C)c3Cl)cc21 (stereo partly drawn) [Compound 30, 4-((2-acetamidoethyl)amino)-N-(2-chloro-3'-((3-(((R)-3-hydroxypyrrolidin-1-yl)methyl)-1,7-naphthyridin-8-yl)amino)-2'-methyl-[1,1'-biphenyl]-3-yl)-4,5,6,7-tetrahydropyrazolo[1,5-a]pyridine-2-carboxamide] | < 10
Cc1c(Nc2nccc3cc(CN4CC[C@@H](O)C4)cnc23)cccc1-c1cccc(NC(=O)c2cc3n(n2)CCCC3NC[C@@H]2CCC(=O)N2)c1Cl (stereo partly drawn) [Compound 31, N-(2-chloro-3'-((3-(((R)-3-hydroxypyrrolidin-1-yl)methyl)-1,7-naphthyridin-8-yl)amino)-2'-methyl-[1,1'-biphenyl]-3-yl)-4-((((S)-5-oxopyrrolidin-2-yl)methyl)amino)-4,5,6,7-tetrahydropyrazolo[1,5-a]pyridine-2-carboxamide] | < 10
Cc1c(Nc2nccc3cc(CN4CC[C@@H](O)C4)cnc23)cccc1-c1cccc(NC(=O)c2cc3n(n2)CCCC3NCC(=O)O)c1Cl (stereo partly drawn) [Compound 32, 2-((2-((2-chloro-3'-((3-(((R)-3-hydroxypyrrolidin-1-yl)methyl)-1,7-naphthyridin-8-yl)amino)-2'-methyl-[1,1'-biphenyl]-3-yl)carbamoyl)-4,5,6,7-tetrahydropyrazolo[1,5-a]pyridin-4-yl)amino)acetic acid] | < 10
Cc1c(Nc2nccc3cc(CN4CC[C@@H](O)C4)cnc23)cccc1-c1cccc(NC(=O)c2cc3n(n2)CCCC3N2CC[C@@H](C(=O)O)C2)c1Cl (stereo partly drawn) [Compound 33, (3R)-1-(2-((2-chloro-3'-((3-(((R)-3-hydroxypyrrolidin-1-yl)methyl)-1,7-naphthyridin-8-yl)amino)-2'-methyl-[1,1'-biphenyl]-3-yl)carbamoyl)-4,5,6,7-tetrahydropyrazolo[1,5-a]pyridin-4-yl)pyrrolidine-3-carboxylic acid] | < 10

Other lines, results leading:

IC50 [nM] | SMILES
< 10 | Cc1c(NC(=O)c2cc3n(n2)CCCC3NC[C@@H]2CCC(=O)N2)cccc1-c1cccc(Nc2nccc3cc(CN4CC[C@@H](O)C4)cnc23)c1C (stereo partly drawn) [Compound 15, N-(3'-((3-(((R)-3-hydroxypyrrolidin-1-yl)methyl)-1,7-naphthyridin-8-yl)amino)-2,2'-dimethyl-[1,1'-biphenyl]-3-yl)-4-((((S)-5-oxopyrrolidin-2-yl)methyl)amino)-4,5,6,7-tetrahydropyrazolo[1,5-a]pyridine-2-carboxamide]
< 10 | Cc1c(NC(=O)c2cc3n(n2)CCCC3NCC(=O)O)cccc1-c1cccc(Nc2nccc3cc(CN4CC[C@@H](O)C4)cnc23)c1C (stereo partly drawn) [Compound 16, 2-((2-((3'-((3-(((R)-3-hydroxypyrrolidin-1-yl)methyl)-1,7-naphthyridin-8-yl)amino)-2,2'-dimethyl-[1,1'-biphenyl]-3-yl)carbamoyl)-4,5,6,7-tetrahydropyrazolo[1,5-a]pyridin-4-yl)amino)acetic acid]
< 10 | Cc1c(NC(=O)c2cc3c(NC(C)(C)C(=O)O)cccn3n2)cccc1-c1cccc(Nc2nccc3cc(CN4CC[C@@H](O)C4)cnc23)c1C [Compound 17, (R)-2-((2-((3'-((3-((3-hydroxypyrrolidin-1-yl)methyl)-1,7-naphthyridin-8-yl)amino)-2,2'-dimethyl-[1,1'-biphenyl]-3-yl)carbamoyl)pyrazolo[1,5-a]pyridin-4-yl)amino)-2-methylpropanoic acid]
< 10 | O=C(Nc1cccc(-c2cccc(Nc3nccc4cc(CN5CC[C@@H](O)C5)cnc34)c2Cl)c1Cl)c1cc2n(n1)CCCC2N1CC[C@@H](C(=O)O)C1 (stereo partly drawn) [Compound 22, (3R)-1-(2-((2,2'-dichloro-3'-((3-(((R)-3-hydroxypyrrolidin-1-yl)methyl)-1,7-naphthyridin-8-yl)amino)-[1,1'-biphenyl]-3-yl)carbamoyl)-4,5,6,7-tetrahydropyrazolo[1,5-a]pyridin-4-yl)pyrrolidine-3-carboxylic acid]
< 10 | O=C(O)CNC1CCCn2nc(C(=O)Nc3cccc(-c4cccc(Nc5nccc6cc(CN7CC[C@@H](O)C7)cnc56)c4Cl)c3Cl)cc21 (stereo partly drawn) [Compound 26, 2-((2-((2,2'-dichloro-3'-((3-(((R)-3-hydroxypyrrolidin-1-yl)methyl)-1,7-naphthyridin-8-yl)amino)-[1,1'-biphenyl]-3-yl)carbamoyl)-4,5,6,7-tetrahydropyrazolo[1,5-a]pyridin-4-yl)amino)acetic acid]
< 10 | Cc1c(Nc2nccc3cc(CN4CC[C@@H](O)C4)cnc23)cccc1-c1cccc(NC(=O)c2cc3n(n2)CCCC3NCCO)c1Cl (stereo partly drawn) [Compound 28, N-(2-chloro-3'-((3-(((R)-3-hydroxypyrrolidin-1-yl)methyl)-1,7-naphthyridin-8-yl)amino)-2'-methyl-[1,1'-biphenyl]-3-yl)-4-((2-hydroxyethyl)amino)-4,5,6,7-tetrahydropyrazolo[1,5-a]pyridine-2-carboxamide]
